Test results: patent US10385108B2, “Peptide analogs of alpha-melanocyte stimulating hormone” (Genzyme Corporation, priority 2008, dated 2019)
Where a SMILES comes first, the peptide text is derived from it. [ ]: non-standard residue; d: D form. The star is where a group is joined. X1 = CCCCCCCCCCCCCCCCCC(=O)NCCCCCCN*; dBta = N[C@H](Cc1csc2ccccc12)C(=O)O; d3Pal = N[C@H](Cc1cccnc1)C(=O)O; d2Thi = N[C@H](Cc1cccs1)C(=O)O; NH(CH2)3Ph = c1ccc(CCCN*)cc1; dNle = CCCC[C@@H](N)C(=O)O

What follows are molecules tested against MC1R (Homo sapiens, UniProt Q01726) (assay: Competitive binding with 125I-NDP-MSH, HEK293 membrane preparations, MC1R). Details: not given.
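Note: Read-out: receptor-bound radioligand retained by filtration and counted.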

Sequence of MC1R (Q01726 whole entry): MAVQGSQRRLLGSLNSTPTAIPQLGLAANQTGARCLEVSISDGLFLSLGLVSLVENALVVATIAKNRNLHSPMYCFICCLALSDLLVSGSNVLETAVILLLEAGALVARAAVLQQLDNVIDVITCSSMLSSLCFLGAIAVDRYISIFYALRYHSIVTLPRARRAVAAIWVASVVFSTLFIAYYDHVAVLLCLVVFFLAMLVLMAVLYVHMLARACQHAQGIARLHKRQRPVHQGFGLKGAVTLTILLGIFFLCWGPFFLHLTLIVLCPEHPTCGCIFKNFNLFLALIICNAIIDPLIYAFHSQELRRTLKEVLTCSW

affinity for MC1R compared with parent peptide (in words) | Compound
no increase in the affinity | CC(C)[C@@H](N)C(=O)N1CCC[C@@H]1C(=O)N[C@H](CCCCN)C(=O)NCC(=O)N[C@H](Cc1c[nH]c2ccccc12)C(=O)N[C@H](CCCNC(=N)N)C(=O)N[C@H](Cc1ccccc1)C(=O)N[C@H](Cc1c[nH]cn1)C(=O)NCCCc1ccccc1 [compound 847, vpkGwrfh] (H-[dV][dP][dK]G[dW][dR][dF][dH]-{NH(CH2)3Ph})

Same assay, conditions: Ki MC1R, competition with 125I-NDP-MSH

Compound | Ki [nM]
CCCCCCCCCCCCCCCCCC(=O)N[C@@H](Cc1c[nH]cn1)C(=O)N[C@H](Cc1ccccc1)C(=O)N[C@@H](CCCNC(=N)N)C(=O)N[C@@H](Cc1c[nH]c2ccccc12)C(N)=O [compound 820, (Stearyl) HfRW] | 1.3
CC(C)[C@@H](N)C(=O)N1CCC[C@@H]1C(=O)N[C@H](CCCCN)C(=O)NCC(=O)N[C@H](Cc1c[nH]c2ccccc12)C(=O)N[C@H](CCCNC(=N)N)C(=O)N[C@H](Cc1ccccc1)C(=O)N[C@H](Cc1c[nH]cn1)C(=O)NCCCc1ccccc1 [compound 847, vpkGwrfh] (H-[dV][dP][dK]G[dW][dR][dF][dH]-{NH(CH2)3Ph}) | 104 ± 72
CSCC[C@@H](NC(=O)[C@@H](CCC(=O)O)NC(=O)[C@@H](Cc1c[nH]cn1)NC(=O)[C@@H](Cc1ccccc1)NC(=O)[C@@H](CCCNC(=N)N)NC(=O)[C@@H](Cc1csc2ccccc12)NC(=O)CNC(=O)[C@@H](CCCCN)NC(=O)[C@H]1CCCN1C(=O)[C@H](NC(C)=O)C(C)C)C(=O)N[C@H](CO)C(=O)N[C@H](Cc1ccc(O)cc1)C(=O)N[C@H](CO)C(N)=O [compound 859, vpkG(3-benzothienyl-D-Alanine)rfhemsys] (Ac-[dV][dP][dK]G[dBta][dR][dF][dH][dE][dM][dS][dY][dS]-NH2) | 206
CSCC[C@@H](NC(=O)[C@@H](CCC(=O)O)NC(=O)[C@@H](Cc1c[nH]cn1)NC(=O)[C@@H](Cc1cccnc1)NC(=O)[C@@H](CCCNC(=N)N)NC(=O)[C@@H](Cc1c[nH]c2ccccc12)NC(=O)CNC(=O)[C@@H](CCCCN)NC(=O)[C@H]1CCCN1C(=O)[C@H](NC(C)=O)C(C)C)C(=O)N[C@H](CO)C(=O)N[C@H](Cc1ccc(O)cc1)C(=O)N[C@H](CO)C(N)=O [compound 867, vpkGwr(3-pyridyl-D-Alanine)hemsys] (Ac-[dV][dP][dK]G[dW][dR][d3Pal][dH][dE][dM][dS][dY][dS]-NH2) | 480
CSCC[C@@H](NC(=O)[C@@H](CCC(=O)O)NC(=O)[C@@H](Cc1c[nH]cn1)NC(=O)[C@@H](Cc1ccc([N+](=O)[O-])cc1)NC(=O)[C@@H](CCCNC(=N)N)NC(=O)[C@@H](Cc1c[nH]c2ccccc12)NC(=O)CNC(=O)[C@@H](CCCCN)NC(=O)[C@H]1CCCN1C(=O)[C@H](NC(C)=O)C(C)C)C(=O)N[C@H](CO)C(=O)N[C@H](Cc1ccc(O)cc1)C(=O)N[C@H](CO)C(N)=O [compound 871, vpkGwr(4-Nitro-D-Phe)hemsys] | 324
CSCC[C@@H](NC(=O)[C@@H](CCC(=O)O)NC(=O)[C@@H](Cc1c[nH]c2ccccc12)NC(=O)[C@@H](Cc1ccccc1)NC(=O)[C@@H](CCCNC(=N)N)NC(=O)[C@@H](Cc1c[nH]c2ccccc12)NC(=O)CNC(=O)[C@@H](CCCCN)NC(=O)[C@H]1CCCN1C(=O)[C@H](NC(C)=O)C(C)C)C(=O)N[C@H](CO)C(=O)N[C@H](Cc1ccc(O)cc1)C(=O)N[C@H](CO)C(N)=O [compound 873, vpkGwrfwemsys] (Ac-[dV][dP][dK]G[dW][dR][dF][dW][dE][dM][dS][dY][dS]-NH2) | 1900
CSCC[C@@](C)(NC(=O)[C@@H](CCC(=O)O)NC(=O)[C@@H](Cc1c[nH]cn1)NC(=O)[C@@H](Cc1ccccc1)NC(=O)[C@@H](CCCNC(=N)N)NC(=O)[C@@H](Cc1c[nH]c2ccccc12)NC(=O)CNC(=O)[C@@H](CCCCN)NC(=O)[C@H]1CCCN1C(=O)[C@H](NC(C)=O)C(C)C)C(=O)N[C@H](CO)C(=O)N[C@H](Cc1ccc(O)cc1)C(=O)N[C@H](CO)C(N)=O [compound 877, vpkGwrfhe(α-methyl-D-Met)sys] | 282

The next lines start with the values.

Ki [nM] | Compound
150 | CC(C)[C@@H](N)C(=O)N1CCC[C@@H]1C(=O)N[C@H](CCCCN)C(=O)NCC(=O)N[C@H](Cc1c[nH]c2ccccc12)C(=O)N[C@H](CCCNC(=N)N)C(=O)N[C@H](Cc1ccccc1)C(=O)N[C@H](Cc1c[nH]cn1)C(=O)O [847int, vpkGwrfh] (H-[dV][dP][dK]G[dW][dR][dF][dH]-OH)
128 | CSCC[C@@H](NC(=O)[C@@H](CCC(=O)O)NC(=O)[C@@H](Cc1c[nH]cn1)NC(=O)[C@@H](Cc1ccccc1)NC(=O)[C@@H](CCCNC(=N)N)NC(=O)[C@@H](Cc1ccccc1)NC(=O)CNC(=O)[C@@H](CCCCN)NC(=O)[C@H]1CCCN1C(=O)[C@H](NC(C)=O)C(C)C)C(=O)N[C@H](CO)C(=O)N[C@H](Cc1ccc(O)cc1)C(=O)N[C@H](CO)C(N)=O [862-b, vpkGfrfhemsys] (Ac-[dV][dP][dK]G[dF][dR][dF][dH][dE][dM][dS][dY][dS]-NH2)
2.5 | CSCC[C@@H](NC(=O)[C@@H](C)NC(=O)[C@@H](Cc1c[nH]cn1)NC(=O)[C@@H](Cc1ccccc1)NC(=O)[C@@H](CCCNC(=N)N)NC(=O)[C@@H](Cc1c[nH]c2ccccc12)NC(=O)CNC(=O)[C@@H](CCCCN)NC(=O)[C@H]1CCCN1C(=O)[C@H](NC(C)=O)C(C)C)C(=O)N[C@H](CO)C(=O)N[C@H](Cc1ccc(O)cc1)C(=O)N[C@H](CO)C(N)=O [compound 808, vpkGwrfhamsys] (Ac-[dV][dP][dK]G[dW][dR][dF][dH][dA][dM][dS][dY][dS]-NH2)
3 | CSCC[C@@H](NC(=O)[C@@H](CCC(=O)O)NC(=O)[C@@H](Cc1c[nH]cn1)NC(=O)[C@@H](Cc1ccccc1)NC(=O)[C@@H](CCCNC(=N)N)NC(=O)[C@@H](Cc1c[nH]c2ccccc12)NC(=O)CNC(=O)[C@@H](CCCN)NC(=O)[C@H]1CCCN1C(=O)[C@H](NC(C)=O)C(C)C)C(=O)N[C@H](CO)C(=O)N[C@H](Cc1ccc(O)cc1)C(=O)N[C@H](CO)C(N)=O [compound 857, vp(D-Ornithine)Gwrfhemsys]
18 | CCCC[C@@H](NC(=O)[C@H]1CCCN1C(=O)[C@H](NC(C)=O)C(C)C)C(=O)NCC(=O)N[C@H](Cc1c[nH]c2ccccc12)C(=O)N[C@H](CCCNC(=N)N)C(=O)N[C@H](Cc1ccccc1)C(=O)N[C@H](Cc1c[nH]cn1)C(=O)N[C@H](CCC(=O)O)C(=O)N[C@H](CCSC)C(=O)N[C@H](CO)C(=O)N[C@H](Cc1ccc(O)cc1)C(=O)N[C@H](CO)C(N)=O [compound 858, vp(D-Norleucine)Gwrfhemsys] (Ac-[dV][dP][dNle]G[dW][dR][dF][dH][dE][dM][dS][dY][dS]-NH2)
96 | CSCC[C@@H](NC(=O)[C@@H](CCC(=O)O)NC(=O)[C@@H](Cc1c[nH]cn1)NC(=O)[C@@H](Cc1ccccc1)NC(=O)[C@@H](CCCNC(=N)N)NC(=O)[C@@H](Cc1c[nH]c2ccc(O)cc12)NC(=O)CNC(=O)[C@@H](CCCCN)NC(=O)[C@H]1CCCN1C(=O)[C@H](NC(C)=O)C(C)C)C(=O)N[C@H](CO)C(=O)N[C@H](Cc1ccc(O)cc1)C(=O)N[C@H](CO)C(N)=O [compound 860, vpkG(5-hydroxy-D-Trp)rfhemsys]
75 | COc1ccc2[nH]cc(C[C@@H](NC(=O)CNC(=O)[C@@H](CCCCN)NC(=O)[C@H]3CCCN3C(=O)[C@H](NC(C)=O)C(C)C)C(=O)N[C@H](CCCNC(=N)N)C(=O)N[C@H](Cc3ccccc3)C(=O)N[C@H](Cc3c[nH]cn3)C(=O)N[C@H](CCC(=O)O)C(=O)N[C@H](CCSC)C(=O)N[C@H](CO)C(=O)N[C@H](Cc3ccc(O)cc3)C(=O)N[C@H](CO)C(N)=O)c2c1 [compound 861, vpkG(5-methoxy-D-Trp)rfhemsys]
2300 | CSCC[C@@H](NC(=O)[C@@H](CCC(=O)O)NC(=O)[C@@H](Cc1c[nH]cn1)NC(=O)[C@@H](Cc1ccccc1)NC(=O)[C@@H](Cc1c[nH]cn1)NC(=O)[C@@H](Cc1c[nH]c2ccccc12)NC(=O)CNC(=O)[C@@H](CCCCN)NC(=O)[C@H]1CCCN1C(=O)[C@H](NC(C)=O)C(C)C)C(=O)N[C@H](CO)C(=O)N[C@H](Cc1ccc(O)cc1)C(=O)N[C@H](CO)C(N)=O [compound 865, vpkGwhfhemsys] (Ac-[dV][dP][dK]G[dW][dH][dF][dH][dE][dM][dS][dY][dS]-NH2)
5.4 | CSCC[C@@H](NC(=O)[C@@H](CCC(=O)O)NC(=O)[C@@H](Cc1c[nH]cn1)NC(=O)[C@@H](Cc1cccs1)NC(=O)[C@@H](CCCNC(=N)N)NC(=O)[C@@H](Cc1c[nH]c2ccccc12)NC(=O)CNC(=O)[C@@H](CCCCN)NC(=O)[C@H]1CCCN1C(=O)[C@H](NC(C)=O)C(C)C)C(=O)N[C@H](CO)C(=O)N[C@H](Cc1ccc(O)cc1)C(=O)N[C@H](CO)C(N)=O [compound 868, vpkGwr(2-thienyl-D-Alanine)hemsys] (Ac-[dV][dP][dK]G[dW][dR][d2Thi][dH][dE][dM][dS][dY][dS]-NH2)
400 | CSCC[C@@H](NC(=O)[C@@H](CC(=O)O)NC(=O)[C@@H](Cc1c[nH]cn1)NC(=O)[C@@H](Cc1ccccc1)NC(=O)[C@@H](CCCNC(=N)N)NC(=O)[C@@H](Cc1c[nH]c2ccccc12)NC(=O)CNC(=O)[C@@H](CCCCN)NC(=O)[C@H]1CCCN1C(=O)[C@H](NC(C)=O)C(C)C)C(=O)N[C@H](CO)C(=O)N[C@H](Cc1ccc(O)cc1)C(=O)N[C@H](CO)C(N)=O [compound 875, vpkGwrfhdmsys] (Ac-[dV][dP][dK]G[dW][dR][dF][dH][dD][dM][dS][dY][dS]-NH2)
832 | CC(=O)N[C@@H](C(=O)N1CCC[C@@H]1C(=O)N[C@H](CCCCN)C(=O)NCC(=O)N[C@H](Cc1c[nH]c2ccccc12)C(=O)N[C@H](CCCNC(=N)N)C(=O)N[C@H](Cc1ccccc1)C(=O)N[C@H](Cc1c[nH]cn1)C(=O)N[C@H](CCC(=O)O)C(=O)N[C@H](CCCCN)C(=O)N[C@H](CO)C(=O)N[C@H](Cc1ccc(O)cc1)C(=O)N[C@H](CO)C(N)=O)C(C)C [compound 879, vpkGwrfheksys] (Ac-[dV][dP][dK]G[dW][dR][dF][dH][dE][dK][dS][dY][dS]-NH2)

Same assay, conditions: relative to the unmodified tetrapeptide

improvement of binding to MC1R by stearyl addition to the core tetrapeptide [fold] | Compound
80 | CCCCCCCCCCCCCCCCCC(=O)N[C@@H](Cc1c[nH]cn1)C(=O)N[C@H](Cc1ccccc1)C(=O)N[C@@H](CCCNC(=N)N)C(=O)N[C@@H](Cc1c[nH]c2ccccc12)C(N)=O [compound 820, (Stearyl) HfRW]
> 250 | CCCCCCCCCCCCCCCCCC(=O)NCCCCCCNC(=O)[C@@H](Cc1c[nH]cn1)NC(=O)[C@H](Cc1ccccc1)NC(=O)[C@@H](CCCNC(=N)N)NC(=O)[C@@H](Cc1c[nH]c2ccccc12)NC(C)=O [compound 882, wrFh] (Ac-[dW][dR]F[dH]-X1)
